Assay results published in PubChem BioAssay (NCI).
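Briefly, cells in 96-well plates were exposed to five compound concentrations for 48 h, and endpoints were estimated by linear interpolation. TGI marks complete inhibition of growth.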

Columns and labels:
Experiment in all cases: DTP human tumour cell line panel, 48 h
UO-31 renal = tested on: UO-31 renal
NCI-H522 lung = tested on: NCI-H522 lung
HCT-15 colon = tested on: HCT-15 colon
COLO 205 colon = tested on: COLO 205 colon
HT29 colon = tested on: HT29 colon
SR leukemia = tested on: SR leukemia
MOLT-4 leukemia = tested on: MOLT-4 leukemia
NCI-H460 lung = tested on: NCI-H460 lung
RXF-631 renal = tested on: RXF-631 renal
SF-268 CNS = tested on: SF-268 CNS
DMS 273 small cell lung = tested on: DMS 273 small cell lung
SF-295 CNS = tested on: SF-295 CNS
HCT-116 colon = tested on: HCT-116 colon
NCI-H23 lung = tested on: NCI-H23 lung
SK-OV-3 ovarian = tested on: SK-OV-3 ovarian
SN12C renal = tested on: SN12C renal
HCC-2998 colon = tested on: HCC-2998 colon
HOP-92 NSCLC = tested on: HOP-92 NSCLC
IGROV1 ovarian = tested on: IGROV1 ovarian
HOP-62 NSCLC = tested on: HOP-62 NSCLC
SK-MEL-5 melanoma = tested on: SK-MEL-5 melanoma
SW-620 colon = tested on: SW-620 colon
MALME-3M melanoma = tested on: MALME-3M melanoma
OVCAR-5 ovarian = tested on: OVCAR-5 ovarian
K-562 leukemia = tested on: K-562 leukemia
U251 CNS = tested on: U251 CNS
SNB-19 CNS = tested on: SNB-19 CNS
TK-10 renal = tested on: TK-10 renal
CCRF-CEM leukemia = tested on: CCRF-CEM leukemia
DMS 114 small cell lung = tested on: DMS 114 small cell lung
M19-MEL melanoma = tested on: M19-MEL melanoma
KM12 colon = tested on: KM12 colon
A549 NSCLC = tested on: A549 NSCLC
SNB-78 CNS = tested on: SNB-78 CNS
SNB-75 CNS = tested on: SNB-75 CNS
UACC-62 melanoma = tested on: UACC-62 melanoma
OVCAR-4 ovarian = tested on: OVCAR-4 ovarian
HL-60(TB) leukemia = tested on: HL-60(TB) leukemia
KM20L2 colon = tested on: KM20L2 colon
DLD-1 colon = tested on: DLD-1 colon
OVCAR-3 ovarian = tested on: OVCAR-3 ovarian
SF-539 CNS = tested on: SF-539 CNS
M14 melanoma = tested on: M14 melanoma
NCI-H226 lung = tested on: NCI-H226 lung
EKVX NSCLC = tested on: EKVX NSCLC
ACHN renal = tested on: ACHN renal
UACC-257 melanoma = tested on: UACC-257 melanoma
LXFL 529 NSCLC = tested on: LXFL 529 NSCLC
SK-MEL-28 melanoma = tested on: SK-MEL-28 melanoma

Measured: TGI

c1ccc(CCn2cncn2)cc1
> 100 µM: UO-31 renal | NCI-H522 lung | HCT-15 colon | COLO 205 colon | HT29 colon | SR leukemia | MOLT-4 leukemia | NCI-H460 lung | RXF-631 renal | SF-268 CNS | DMS 273 small cell lung | SF-295 CNS | HCT-116 colon | NCI-H23 lung | SK-OV-3 ovarian | SN12C renal | HCC-2998 colon | HOP-92 NSCLC | IGROV1 ovarian | HOP-62 NSCLC | SK-MEL-5 melanoma | SW-620 colon | MALME-3M melanoma | OVCAR-5 ovarian | K-562 leukemia | U251 CNS | SNB-19 CNS | TK-10 renal | CCRF-CEM leukemia | DMS 114 small cell lung | M19-MEL melanoma | KM12 colon | A549 NSCLC | SNB-78 CNS | SNB-75 CNS | UACC-62 melanoma | OVCAR-4 ovarian | HL-60(TB) leukemia | KM20L2 colon | DLD-1 colon | OVCAR-3 ovarian | SF-539 CNS | M14 melanoma | NCI-H226 lung | EKVX NSCLC | ACHN renal | UACC-257 melanoma | LXFL 529 NSCLC | SK-MEL-28 melanoma
